In patent publication US5494909A, “Substituted oxazinoisoquinoline derivatives, pharmaceutical compositions containing them and process for preparing same” (priority 1991, dated 1996):

Columns and labels:
[1] = test system: excitatory amino acid receptor-dependent calcium channels; details: literature; cited from earlier work
[2] = test system: genetically hypertensive rats (SHR); assay: The hypobaric hypoxia test; type: in vivo, rat (genetically hypertensive; details: Rattus norvegicus, 1 h; male SHR rats; 22.66 kPa; one hour after administration; protected = survival time 30% longer than control
Description: The antihypoxic effect of the target compounds was studied on genetically hypertensive rats (SHR), which are particularly sensitive to hypoxic insults. Male rats weighing 210 to 230 g each were used for these experiments.
The hypobaric hypoxia test
The experimental animals were placed in pairs in a desiccator of 6 liters volume one hour after administration of the compound to be tested. The pressure in the desiccator was decreased to 22.66 kPa (170 mmHg) during 20 seconds. The time elapsing from this point until the last respiratory movement was measured. An animal was considered to be protected when its survival time was by 30% longer in comparison with the control group.

[3] = test system: Potassium-stimulated Ca uptake, synaptosomes prepared from rat brain; assay: Inhibition of potassium-stimulated calcium uptake into rat brain synaptosomes; details: for IC50: read-out: Inhibition of Potassium-stimulated Ca uptake IC50, 60 mmoles/l KCl, rat synaptosomes, pH 7.4, 37° C., 20 seconds
Description: (§1) The calcium uptake-inhibitory effect of the compounds of the formula (I) according to the invention was studied on synaptosomes prepared from rat brain by using a method described in J. Neurochem.
(§2) Wistar rats weighing 180 to 200 g were decapitated and the brains were collected in ice-cold physiological saline, the cortex was removed and purified from the white matter. The tissue was homogenized by a glass-teflon potter in 10 volumes of a saccharose solution of 0.32 moles/liter concentration. The homogenate was centrifuged at 1000×g in a Janetzki K-70 centrifuge at 4° C. for 10 minutes, the supernatant was centrifuged at 12000×g in a Hitachi CR-26H centrifuge at 4° C. for 20 minutes. The sediment was suspended in a saccharose solution of 0.32 moles/liter concentration, then the protein content of the preparation was adjusted to 20 mg/ml.
Components of the solution used for incubation were as follows:
Incubation solution was saturated with oxygen containing 5% by volume of carbon dioxide until reaching a pH value of 7.4. The test compounds and the synaptosome preparation in an amount corresponding to 1 mg of protein were added into the incubation solution. The final volume of incubation was 1 ml. The samples were pre-incubated at 37° C. for 20 minutes.
The calcium uptake was initiated by addition of a 45CACl2 solution of 2.8 kBq (75 nCi) activity. Potassium chloride was used in a concentration of 60 mmoles/l for the investigation of potassium-stimulated calcium uptake; sodium chloride was added in the same concentration to the control samples.
The incubation time was 20 seconds. The reaction stopped by adding 5 ml of a stopping solution containing 120 mmoles/l of sodium chloride, 5 mmoles/l of potassium chloride, 5 mmoles/l of EGTA [ethylene glycol bis(β-aminoethyl)ether-N,N, N',N'-tetraacetic acid]and 20 mmoles/l of TRIS (pH 7.4).

[4] = test system: Veratrine-stimulated Ca uptake, synaptosomes prepared from rat brain; type: biochemical, rat (Wistar)
Description: as §1, §2
Components of the solution used for incubation were as follows: […]
After placing the filter disks in glass cuvets, 10 ml of scintillation cocktail [containing 1000 ml of toluene, 400 ml of abs. ethanol, 10 ml of dioxane, 6 g of 2,5-diphenyloxazole and 0.15 g of 1,4-bis(5-phenyl-2-oxazolyl)benzene] and the radioactivity of the samples was measured by using an 1219 Rackbeta type liquid scintillation spectrophotometer (product of LKB Wallace Company).

Oral toxicity (LD50) = details: in vivo
[5] = qualitative / comparison with reference drug

SMILES	effect on excitatory amino acid receptor-dependent calcium channels (in words) [1]	ED50 [2] [mg/kg]	IC50 [3] [µM]	veratrine-induced calcium uptake inhibitory effect (in words) [4, 5]	IC50 ([4]; veratrine 20 μmoles/l, rat synaptosomes, pH 7.4, 37° C., 20 seconds, read-out: Inhibition of Veratrine-stimulated Ca uptake IC50) [µM]	LD50 (Oral toxicity (LD50)) [mg/kg]	potassium-induced calcium uptake inhibitory effect (in words) [3, 5]
C[C@]12N[C@H](Cc3ccccc31)c1ccccc12 [MK-801, (+)-5-methyl-10,11-dihydro-5H-dibenzo[a,d]cyclohepten-5,10-imine]	inhibit the excitatory amino acid receptor-dependent calcium channels	–	–	–	–	–	–
COCCOC(=O)C1=C(C)NC(C)=C(C(=O)OC(C)C)C1c1cccc([N+](=O)[O-])c1 (stereo not shown) [nimodipine, isopropyl 2methoxyethyl 1,4dihydro-2,6-dimethyl-4-(mnitrophenyl)-3,5-pyridinedicarboxylate, reference compound]	–	8	208	–	–	–	–
Fc1ccc(C(c2ccc(F)cc2)N2CCN(C/C=C/c3ccccc3)CC2)cc1 [flunarizine]	–	50	–	–	–	–	–
COc1cc2c(cc1OCc1ccccc1)CCN1C(=Nc3ccc(C)cc3)OCCC21.Cl (stereo not shown) [compound 1507136, 9-benzyloxy-10-methoxy-4-(p-tolylimino)-1,6,7,11b-tetrahydro-2H,4H-1,3-oxazino[4,3-a]isoquinoline hydrochloride]	–	8	23.9	to a higher degree than flunarizine did	0.29	1400	exceeds that of cinnarizine
